Measured values: PubChem BioAssay AID248 (DTP/NCI, 2004)
Values joined by “and” are separate entries in the source; they are usually repeats but may differ in a detail not shown here. Equal entries are not always repeated. Toxic doses and inconclusive results are not listed. Cut-off read from the data, not from the text of the source: active = T/C of 150% or more; inactive = T/C below 125%.

Test system: L1210 leukemia ip in BDF1 mice, survival T/C
Assay: NCI In Vivo Anticancer Drug Screen. Data for tumor model L1210 Leukemia (intraperitoneal) in B6D2F1 (BDF1) mice
Conditions: endpoint: mean survival time, higher = longer survival
In short: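 Tumor was transplanted into mice, which were then dosed with test compound or vehicle alone. Survival was recorded for each group, and the treated figure was expressed relative to the control figure.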

[1] = dose: 100.0 mg/kg/injection, schedule: Q01DX001 (ip), vehicle: saline
[2] = dose: 200.0 mg/kg/injection, schedule: Q01DX001 (ip), vehicle: saline
[3] = dose: 400.0 mg/kg/injection, schedule: Q01DX001 (ip), vehicle: saline
[4] = dose: 100.0 mg/kg/injection, schedule: Q04DX003 (ip), vehicle: saline
[5] = dose: 200.0 mg/kg/injection, schedule: Q04DX003 (ip), vehicle: saline
[6] = dose: 100.0 mg/kg/injection, schedule: Q04DX003 (ip), vehicle: Klucel (hydroxypropylcellulose) (HPC)
[7] = dose: 200.0 mg/kg/injection, schedule: Q04DX003 (ip), vehicle: Klucel (hydroxypropylcellulose) (HPC)
[8] = dose: 400.0 mg/kg/injection, schedule: Q04DX003 (ip), vehicle: Klucel (hydroxypropylcellulose) (HPC)
[9] = dose: 400.0 mg/kg/injection, schedule: Q04DX003 (ip), vehicle: saline
[10] = dose: 50.0 mg/kg/injection, schedule: Q01DX009 (ip), vehicle: saline
[11] = dose: 100.0 mg/kg/injection, schedule: Q01DX009 (ip), vehicle: saline
[12] = dose: 100.0 mg/kg/injection, schedule: Q04DX002 (ip), vehicle: Klucel (hydroxypropylcellulose) (HPC)
[13] = dose: 200.0 mg/kg/injection, schedule: Q04DX002 (ip), vehicle: Klucel (hydroxypropylcellulose) (HPC)
[14] = dose: 400.0 mg/kg/injection, schedule: Q04DX002 (ip), vehicle: Klucel (hydroxypropylcellulose) (HPC)

Measured: T/C

C=CCc1ccc(OC(=O)Nc2ccc(S(=O)(=O)NC3CCCCC3)cc2)c(OC)c1
inactive: [1] 91 % of control | [2] 94 % of control | [3] 96 % of control

CC1CCC(C(C)C)C(NCCO)C1 (configuration not stated)
inactive: dose: 18.8 mg/kg/injection, schedule: Q04DX003 (ip), vehicle: saline 102 % of control | dose: 37.5 mg/kg/injection, schedule: Q04DX003 (ip), vehicle: saline 100 % of control | dose: 75.0 mg/kg/injection, schedule: Q01DX001 (ip), vehicle: saline 103 % of control | dose: 75.0 mg/kg/injection, schedule: Q04DX003 (ip), vehicle: saline 100 % of control

Nc1cc2c(c(Cl)c1Br)-c1ccccc1C2=O
inactive: [1] 96 % of control | [2] 90 % of control | [3] 94 % of control

O=C(O)/C=C/c1ccc(O)c(O)c1
inactive: dose: 100.0 mg/kg/injection, schedule: Q04DX002 (ip), vehicle: gum acacia 92 % of control | dose: 200.0 mg/kg/injection, schedule: Q04DX002 (ip), vehicle: gum acacia 92 % of control | dose: 400.0 mg/kg/injection, schedule: Q04DX002 (ip), vehicle: gum acacia 95 % of control

Nc1cc(N)nc(C(F)(F)F)n1
inactive: dose: 50.0 mg/kg/injection, schedule: Q01DX Z (ip), vehicle: methylcellulose (MC) 102 % of control | dose: 100.0 mg/kg/injection, schedule: Q01DX Z (ip), vehicle: methylcellulose (MC) 94 % of control

CC1(C)N=C(N)N=C(N)N1c1cccc(Cl)c1Cl
inactive: dose: 5.0 mg/kg/injection, schedule: Q01DX009 (ip), vehicle: saline 95 % of control | dose: 10.0 mg/kg/injection, schedule: Q01DX009 (ip), vehicle: saline 104 % of control | dose: 20.0 mg/kg/injection, schedule: Q01DX009 (ip), vehicle: saline 107 % of control

Nc1c(Cl)c(Cl)cc(Cl)c1Cl
inactive: dose: 100.0 mg/kg/injection, schedule: Q01DX009 (ip), vehicle: saline with Tween-80 102 % of control | dose: 200.0 mg/kg/injection, schedule: Q01DX009 (ip), vehicle: saline with Tween-80 100 % of control | dose: 400.0 mg/kg/injection, schedule: Q01DX009 (ip), vehicle: saline with Tween-80 95 % of control

CCOC(=O)C/C(C)=N\N=C(\C)C(=O)OCC
inactive: [1] 98 % of control | [2] 98 % of control | [3] 92 % of control

O=[N+]([O-])c1ccc(Oc2ccccc2)c(Cl)c1
inactive: dose: 75.0 mg/kg/injection, schedule: Q01DX009 (ip), vehicle: Klucel (hydroxypropylcellulose) (HPC) 101 % of control | dose: 75.0 mg/kg/injection, schedule: Q04DX003 (ip), vehicle: Klucel (hydroxypropylcellulose) (HPC) 96 % of control | dose: 150.0 mg/kg/injection, schedule: Q01DX009 (ip), vehicle: Klucel (hydroxypropylcellulose) (HPC) 108 % of control | dose: 150.0 mg/kg/injection, schedule: Q04DX003 (ip), vehicle: Klucel (hydroxypropylcellulose) (HPC) 110 % of control | dose: 300.0 mg/kg/injection, schedule: Q01DX009 (ip), vehicle: Klucel (hydroxypropylcellulose) (HPC) 108 % of control | dose: 300.0 mg/kg/injection, schedule: Q04DX003 (ip), vehicle: Klucel (hydroxypropylcellulose) (HPC) 93 % of control

C[N+](C)(C)CCCOC(=O)C1C2CC3OC(=O)C1C3C2 (configuration not stated)
inactive: [4] 101 % of control | [5] 96 % of control

Cc1ccc(S(=O)(=O)OCC(C)C2CCC3C4CC=C5CC(Cl)CCC5(C)C4CCC23C)cc1 (configuration not stated)
inactive: dose: 100.0 mg/kg/injection, schedule: Q01DX001 (ip), vehicle: saline with Tween-80 91 % of control | dose: 200.0 mg/kg/injection, schedule: Q01DX001 (ip), vehicle: saline with Tween-80 102 % of control | dose: 400.0 mg/kg/injection, schedule: Q01DX001 (ip), vehicle: saline with Tween-80 94 % of control

Cc1c2cnccc2c(C)c2c1c1ccccc1n2CCCCCC#N
inactive: [6] 100 % of control | [7] 97 % of control | [8] 100 % of control

O=C1c2cc(Cl)ccc2-c2c(Cl)cc(Cl)cc21
inactive: dose: 100.0 mg/kg/injection, schedule: Q01DX001 (ip), vehicle: acetone 89 % of control | [4] 87 % of control | dose: 200.0 mg/kg/injection, schedule: Q01DX001 (ip), vehicle: acetone 89 % of control | [5] 96 % of control | dose: 400.0 mg/kg/injection, schedule: Q01DX001 (ip), vehicle: acetone 95 % of control | [9] 86 % of control

C/C(CCC(=O)O)=N\NC(=O)Cc1cccc2ccccc12
inactive: [6] 94 % of control | [7] 102 % of control | [8] 102 % of control

CCCCN(CCCC)CC(O)c1cc(-c2ccc(C(F)(F)F)cc2)nc2c(Cl)cc(Cl)cc12 (configuration not stated)
inactive: dose: 100.0 mg/kg/injection, schedule: Q04DX002 (ip), vehicle: saline with Tween-80 100 % of control | dose: 200.0 mg/kg/injection, schedule: Q04DX002 (ip), vehicle: saline with Tween-80 92 % of control | dose: 400.0 mg/kg/injection, schedule: Q04DX002 (ip), vehicle: saline with Tween-80 95 % of control

Cc1cccc(NC(=O)c2ccc(Cl)cc2)c1C
inactive: dose: 100.0 mg/kg/injection, schedule: Q01DX009 (ip), vehicle: Klucel (hydroxypropylcellulose) (HPC) 99 % of control | [4] 111 % of control | dose: 200.0 mg/kg/injection, schedule: Q01DX009 (ip), vehicle: Klucel (hydroxypropylcellulose) (HPC) 95 % of control | [5] 104 % of control | dose: 400.0 mg/kg/injection, schedule: Q01DX009 (ip), vehicle: Klucel (hydroxypropylcellulose) (HPC) 95 % of control | [9] 109 % of control

CN1CCC=C(C(=O)N2c3ccccc3CCc3ccccc32)C1
inactive: [10] 107 % of control | [11] 95 % of control | [4] 103 % of control | [5] 92 % of control

Cc1ccc2c(ccc3ccc4ccccc4c32)c1
inactive: [6] 90 % of control | [7] 89 % of control | [8] 93 % of control

c1ccc2c(c1)ccc1cc3cc(NCCCCNc4ccc5nc6c(ccc7ccccc76)cc5c4)ccc3nc12
inactive: dose: 1.56 mg/kg/injection, schedule: Q01DX009 (ip), vehicle: saline with Tween-80 95 % of control | dose: 3.13 mg/kg/injection, schedule: Q01DX009 (ip), vehicle: saline with Tween-80 92 % of control | dose: 6.25 mg/kg/injection, schedule: Q01DX009 (ip), vehicle: saline with Tween-80 95 % of control and 111 % of control | dose: 12.5 mg/kg/injection, schedule: Q01DX009 (ip), vehicle: saline with Tween-80 87 % of control

CC(=O)NC1C(=O)NS(=O)(=O)C1c1ccccc1 (configuration not stated)
inactive: [10] 96 % of control and 97 % of control | [1] 104 % of control and 92 % of control | [11] 97 % of control and 94 % of control | [2] 92 % of control | dose: 200.0 mg/kg/injection, schedule: Q01DX009 (ip), vehicle: saline 94 % of control and 91 % of control | [3] 92 % of control

Cc1ccc(/C=C2/C=C(c3ccccc3)OC2=O)cc1
inactive: dose: 50.0 mg/kg/injection, schedule: Q01DX009 (ip), vehicle: alcohol 87 % of control | dose: 100.0 mg/kg/injection, schedule: Q01DX009 (ip), vehicle: alcohol 87 % of control | dose: 100.0 mg/kg/injection, schedule: Q04DX003 (ip), vehicle: alcohol 92 % of control | dose: 200.0 mg/kg/injection, schedule: Q01DX009 (ip), vehicle: alcohol 88 % of control | dose: 200.0 mg/kg/injection, schedule: Q04DX003 (ip), vehicle: alcohol 95 % of control

COC1OC(CBr)C(OS(C)(=O)=O)C(OC(=O)c2ccccc2)C1OC(=O)c1ccccc1 (configuration not stated)
inactive: [12] 103 % of control | [13] 91 % of control | [14] 94 % of control

Cc1ccc(S(=O)(=O)OC2C3OC(=S)OCC3OC3OC(C)(C)OC32)cc1 (configuration not stated)
inactive: dose: 25.0 mg/kg/injection, schedule: Q04DX002 (ip), vehicle: saline 104 % of control | dose: 50.0 mg/kg/injection, schedule: Q04DX002 (ip), vehicle: saline 107 % of control | dose: 100.0 mg/kg/injection, schedule: Q04DX002 (ip), vehicle: saline 107 % of control

CN(C)c1ccc2nc(C(=O)O)c(=O)n(C)c2c1
inactive: dose: 100.0 mg/kg/injection, schedule: Q01DX001 (ip), vehicle: Klucel (hydroxypropylcellulose) (HPC) 101 % of control | dose: 200.0 mg/kg/injection, schedule: Q01DX001 (ip), vehicle: Klucel (hydroxypropylcellulose) (HPC) 97 % of control

CCCCCC#CC(=O)OCCC
inactive: [12] 97 % of control | [13] 101 % of control | [14] 101 % of control

O=C1CCC=C(c2cccc([N+](=O)[O-])c2)O1
inactive: [6] 100 % of control | [7] 94 % of control | [8] 94 % of control
